# Assay results taken from patent publication US5008386A, “Methylated cyclodextrin type compounds and process for preparing same” (Chinoin Gyogyszer es Vegyeszeti Termekek Gyara R.T., priority 1987, dated 1991).
# Where “and” joins values, the source holds several entries; their conditions need not be identical. Identical values can stand only once. Like-named read-outs stand apart in the source and are kept apart here.
# Columns and labels:
# [1] = Solubility-increasing effect (UV spectrophotometry, 22 °C, 18 hours stirring)
# Procedure: Therefore comparative examinations concerning the solubility-increasing effect were performed with model guest-molecules containing a basic group. (The measurements were carried out by UV spectrophotometry at 22° C. after stirring for 18 hours).
# human erythrocytes [2] = experiment: in vitro; type: cell-based
# Procedure: (§1) Solutions containing the test substances in 10 mM concentration were prepared in a 10 mM phosphate buffer at pH 7.4. The commercially available α-, β- and γ-CD products manufactured by Chinoin Chemical and Pharmaceutical Works Ltd. (Budapest, Hungary) were used.
# (§2) DIMEB and TRIMEB, i.e. heptakis(2,6-di-O-methyl)-β-CD and heptakis(2,3,6-tri-O-methyl)-β-CD, respectively were prepared by the partial or total methylation of β-CD as described previously.
# (§3) Fresh human blood (taken from healthy donors being under no medicinal treatment) treated by citrate as anticoagulant was centrifuged at 2000-3000× g for 10 minutes, then the supernatant was decanted, the eryhtrocytes were suspended in 5 ml of 10 mM isotonic phosphate buffer each and again centrifuged at 2000-3000× g for 10 minutes. After repeating twice this operation, the resulting erythrocytes were suspended in isotonic phosphate buffer to obtain a haematocrite volume of about 10%. This suspension (which could be stored in a refrigerator at about 4° C. for at most 48 hours) was used in further experiments.
# (§4) 0.4 ml of erythrocyte suspension was added to a test solution of 4 ml total volume containing the tested CD-s and derivatives in various concentrations, then the mixture was incubated at 37° C. for 30 minutes. The mixture of 4 ml isotonic phosphate buffer and 0.4 ml erythrocyte suspension was used as blank trial (which was treated similarly to the samples).
# (§5) After 30 minutes, the suspensions being present in the centrifuge tubes were centrifuged at 250-500× g for 10 minutes. (It was observed that no transparent supernatant, useful for spectrophotometric determination was obtained when the centrifuging was carried out for a shorter time.) After 10 minutes, the supernatants were drained off and their extinction was photometrically determined at 543 nm against a blank solution. In order to give the percentage of haemolysis, the extinction measured after a complete haemolysis had to be determined. This value was obtained in such a way that 0.4 ml of erythrocyte suspension was added to 4 ml of distilled water, then incubation and centrifuging were carried out in the same manner as described for the samples. The extinction of the solution thus obtained gave the 100% value of the haemolysis; when relating the measured extinctions of the samples to the 100% value, the extent of the haemolysis was obtained as a relative percentage.
# in vitro = type: cell-based, human; conditions: human, erythrocytes, pH 7.4
# Procedure: as §1, §2, §3, §4, §5
# human erythrocytes [3] = conditions: cited from earlier work
# [4] = 2.5% SUMEB vs 2.5% DIMEB solution, * UV maximum shifted (Sensit base)
# [5] = human, erythrocytes, 0.5 h, pH 7.4
# [6] = 37° C., pH 7,4, 10 mmoles isotonic phosphate buffer
Molecule,"SUMEB / DIMEB (ratio of solubilities) [1, 4]",solubility at 18 h ([1]; 2.5% dimeb solution),solubility at 18 h ([1]; 2.5% sumeb solution),HC50 at 0.5 h (in vitro),MNTC at 0.5 h (in vitro),further results
"CC(Cc1ccccc1)NCCC(c1ccccc1)c1ccccc1 (racemic) [± Prenylamine base, Prenylamine]",3.75,2000 µg/mL,7500 µg/mL,,,solubility at 18 h ([1]; water): 310 µg/mL
CC(NCCC(c1ccccc1)c1ccccc1)c1ccccc1 (racemic) [± Sensit base],,5500 µg/mL,8500 µg/mL,,,SUMEB / DIMEB (ratio of solubilities) [1]: 1.53; solubility at 18 h ([1]; water): 2100 µg/mL
"C[C@@H]([C@H](O)c1ccccc1)N(C)C [- N-Methylephedrine base, N-Methylephedrine]",1.2,18500 µg/mL,22000 µg/mL,,,
CC(C)CCC[C@@H](C)[C@H]1CC[C@H]2[C@@H]3CC=C4C[C@@H](O)CC[C@]4(C)[C@H]3CC[C@]12C [Cholesterol],0.37,1710 µg/mL,640 µg/mL,,,solubility at 18 h ([1]; water): 100 µg/mL
"COC[C@H]1O[C@@H]2O[C@H]3[C@H](O)[C@@H](OC)[C@@H](O[C@H]4[C@H](O)[C@@H](OC)[C@@H](O[C@H]5[C@H](O)[C@@H](OC)[C@@H](O[C@H]6[C@H](O)[C@@H](OC)[C@@H](O[C@H]7[C@H](O)[C@@H](OC)[C@@H](O[C@H]8[C@H](O)[C@@H](OC)[C@@H](O[C@H]1[C@H](O)[C@H]2OC)O[C@@H]8COC)O[C@@H]7COC)O[C@@H]6COC)O[C@@H]5COC)O[C@@H]4COC)O[C@@H]3COC [DIMEB, heptakis(2,6-di-O-methyl)-β-CD]",,,,1 mM and 1440 µg/mL,220 µM and 300 µg/mL,"concentration giving the same percentage of haemolysis, relative to β-CD (human erythrocytes [2]): one sixth"
c1ccc(Nc2ccccc2)cc1 [Diphenylamine],0.72,520 µg/mL,410 µg/mL,,,
"COC[C@H]1O[C@@H]2O[C@H]3[C@H](OC)[C@@H](OC)[C@@H](O[C@H]4[C@H](OC)[C@@H](OC)[C@@H](O[C@H]5[C@H](OC)[C@@H](OC)[C@@H](O[C@H]6[C@H](OC)[C@@H](OC)[C@@H](O[C@H]7[C@H](OC)[C@@H](OC)[C@@H](O[C@H]8[C@H](OC)[C@@H](OC)[C@@H](O[C@H]1[C@H](OC)[C@H]2OC)O[C@@H]8COC)O[C@@H]7COC)O[C@@H]6COC)O[C@@H]5COC)O[C@@H]4COC)O[C@@H]3COC [TRIMEB, heptakis(2,3,6-tri-O-methyl)-β-CD]",,,,4 mM and 5700 µg/mL,1.4 mM and 2000 µg/mL,"haemolytic effect, in words (human erythrocytes [2]): also higher than that of the mother compound"
OC[C@H]1O[C@@H]2O[C@H]3[C@H](O)[C@@H](O)[C@@H](O[C@H]4[C@H](O)[C@@H](O)[C@@H](O[C@H]5[C@H](O)[C@@H](O)[C@@H](O[C@H]6[C@H](O)[C@@H](O)[C@@H](O[C@H]7[C@H](O)[C@@H](O)[C@@H](O[C@H]1[C@H](O)[C@H]2O)O[C@@H]7CO)O[C@@H]6CO)O[C@@H]5CO)O[C@@H]4CO)O[C@@H]3CO [α-CD],,,,12 mM and 11700 µg/mL,6 mM and 5800 µg/mL,"low concentration protecting human erythrocytes against heat-induced or osmotic haemolysis (human erythrocytes [3]): 5 mmol; concentration at (and above) which haemolysis is induced (human erythrocytes [3]; pH 7): 6 mmol; Haemolysis values, measured (human erythrocytes [2]; [5]): 4.97%"
"OC[C@H]1O[C@@H]2O[C@H]3[C@H](O)[C@@H](O)[C@@H](O[C@H]4[C@H](O)[C@@H](O)[C@@H](O[C@H]5[C@H](O)[C@@H](O)[C@@H](O[C@H]6[C@H](O)[C@@H](O)[C@@H](O[C@H]7[C@H](O)[C@@H](O)[C@@H](O[C@H]8[C@H](O)[C@@H](O)[C@@H](O[C@H]1[C@H](O)[C@H]2O)O[C@@H]8CO)O[C@@H]7CO)O[C@@H]6CO)O[C@@H]5CO)O[C@@H]4CO)O[C@@H]3CO [β-CD, β-cyclodextrin]",,,,6 mM and 6800 µg/mL,1.6 mM and 1800 µg/mL,concentration at (and above) which haemolysis is induced (human erythrocytes [3]; [6]): 3 mmol
OC[C@H]1O[C@@H]2O[C@H]3[C@H](O)[C@@H](O)[C@@H](O[C@H]4[C@H](O)[C@@H](O)[C@@H](O[C@H]5[C@H](O)[C@@H](O)[C@@H](O[C@H]6[C@H](O)[C@@H](O)[C@@H](O[C@H]7[C@H](O)[C@@H](O)[C@@H](O[C@H]8[C@H](O)[C@@H](O)[C@@H](O[C@H]9[C@H](O)[C@@H](O)[C@@H](O[C@H]1[C@H](O)[C@H]2O)O[C@@H]9CO)O[C@@H]8CO)O[C@@H]7CO)O[C@@H]6CO)O[C@@H]5CO)O[C@@H]4CO)O[C@@H]3CO [γ-CD],,,,24 mM and 32000 µg/mL,≤ 9 mM and ≤ 11000 µg/mL,concentration at (and above) which haemolysis is induced (human erythrocytes [3]; [6]): 16 mmol; low concentration protecting human erythrocytes against heat-induced or osmotic haemolysis (human erythrocytes [3]): 10 mmol
trideca-O-methyl-monosuccinyl-β-cyclodextrin [SUMEB],,,,,,"haemolytic effect, in words (human erythrocytes [2]): significantly lower in comparison to the haemolytic effect of the mother compound; concentration at which no haemolytic effect was observed (human erythrocytes [2]; [5]): 300 µg/mL; concentration with a haemolysis value of 50% (human erythrocytes [2]; [5]): 6500 µg/mL"
trideca-O-methyl-monosuccinyl-β-cyclodextrin methyl ester [Succinyl-DIMEB methyl ester],,,,,,"haemolytic effect, in words (human erythrocytes [2]): not significantly different from the haemolytic effect of the trideca-O-methyl-monosuccinyl-β-CD"
